Laboratory results: ChEMBL document CHEMBL3085700 (J Med Chem, 2013)
Calls of active or inactive are those of the source. The rule behind the calls is not given here.

Assays:
[1] = biological target: T1, Fatty-acid amide hydrolase 1 (Rattus norvegicus) (UniProt P97612); assay: Inhibition of FAAH in rat RBL2H3 cells assessed as blockade of [3H]-anandamide uptake at 0.1 uM incubated for 15 mins prior to [3H]-anandamide addition measured after 10 mins by scintillation spectroscopic analysis; assay type: cell-based; details: RBL-2H3
T1 sequence (whole entry): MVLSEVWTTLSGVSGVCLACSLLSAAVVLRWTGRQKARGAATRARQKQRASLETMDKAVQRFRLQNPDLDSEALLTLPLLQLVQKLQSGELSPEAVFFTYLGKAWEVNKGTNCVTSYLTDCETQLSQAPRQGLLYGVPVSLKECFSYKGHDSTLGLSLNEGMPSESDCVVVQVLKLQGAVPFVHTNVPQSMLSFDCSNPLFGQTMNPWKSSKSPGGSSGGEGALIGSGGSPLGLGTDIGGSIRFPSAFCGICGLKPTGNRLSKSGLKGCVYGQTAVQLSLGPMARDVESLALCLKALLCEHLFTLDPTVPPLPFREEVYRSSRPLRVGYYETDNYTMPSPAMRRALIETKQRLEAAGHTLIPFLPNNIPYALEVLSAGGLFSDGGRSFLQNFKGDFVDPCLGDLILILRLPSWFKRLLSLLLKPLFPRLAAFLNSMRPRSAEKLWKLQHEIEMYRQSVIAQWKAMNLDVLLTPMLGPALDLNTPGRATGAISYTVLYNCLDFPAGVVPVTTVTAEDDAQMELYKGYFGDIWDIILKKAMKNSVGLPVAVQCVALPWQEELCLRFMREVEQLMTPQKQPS

[2] = biological target: T2, Prostaglandin G/H synthase 1 (Ovis aries) (UniProt P05979); assay: Inhibition of ovine COX-1 using arachidonic acid as substrate assessed as oxygen consumption at 30 uM measured within 10 to 50 secs
T2 sequence (whole entry): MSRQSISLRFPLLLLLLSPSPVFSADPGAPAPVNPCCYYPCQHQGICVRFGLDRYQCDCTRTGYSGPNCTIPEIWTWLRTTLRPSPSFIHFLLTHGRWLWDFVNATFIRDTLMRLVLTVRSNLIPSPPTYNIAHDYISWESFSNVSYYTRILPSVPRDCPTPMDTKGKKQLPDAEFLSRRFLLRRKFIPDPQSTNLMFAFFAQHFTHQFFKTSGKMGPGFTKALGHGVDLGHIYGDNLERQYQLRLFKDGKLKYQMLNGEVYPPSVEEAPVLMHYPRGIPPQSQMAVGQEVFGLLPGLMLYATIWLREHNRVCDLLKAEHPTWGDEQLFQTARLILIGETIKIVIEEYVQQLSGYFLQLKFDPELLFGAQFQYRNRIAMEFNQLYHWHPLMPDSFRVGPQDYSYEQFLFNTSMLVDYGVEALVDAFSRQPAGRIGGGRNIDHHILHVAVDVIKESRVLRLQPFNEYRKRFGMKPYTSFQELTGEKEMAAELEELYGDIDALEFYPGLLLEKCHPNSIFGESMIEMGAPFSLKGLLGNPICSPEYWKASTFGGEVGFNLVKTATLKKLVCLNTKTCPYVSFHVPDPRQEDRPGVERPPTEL

[3] = biological target: T3, Fatty-acid amide hydrolase 1 (Homo sapiens) (UniProt O00519); assay: Inhibition of human recombinant FAAH overexpressed in African green monkey COS7 cells using [3H]-anandamide as substrate at 3 to 30 uM preincubated for 10 to 60 mins by liquid scintillation counting analysis; assay type: cell-based; details: COS-7
T3 sequence (whole entry): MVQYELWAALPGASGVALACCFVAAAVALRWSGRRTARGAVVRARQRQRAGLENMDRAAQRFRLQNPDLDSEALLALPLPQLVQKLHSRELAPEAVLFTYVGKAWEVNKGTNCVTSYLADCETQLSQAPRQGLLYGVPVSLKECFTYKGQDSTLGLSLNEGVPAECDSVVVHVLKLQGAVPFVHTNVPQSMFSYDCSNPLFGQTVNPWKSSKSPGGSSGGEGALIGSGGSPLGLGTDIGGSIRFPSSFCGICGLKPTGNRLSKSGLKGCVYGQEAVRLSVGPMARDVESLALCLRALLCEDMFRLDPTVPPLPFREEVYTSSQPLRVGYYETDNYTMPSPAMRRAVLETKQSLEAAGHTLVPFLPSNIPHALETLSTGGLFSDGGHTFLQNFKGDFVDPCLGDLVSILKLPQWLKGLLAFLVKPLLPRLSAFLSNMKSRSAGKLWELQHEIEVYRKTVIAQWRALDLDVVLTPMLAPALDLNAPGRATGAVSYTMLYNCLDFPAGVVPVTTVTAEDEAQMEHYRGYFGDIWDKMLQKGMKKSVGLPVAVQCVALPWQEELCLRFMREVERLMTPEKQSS

[4] = biological target: Cannabinoid receptor 1 (Rattus norvegicus) (UniProt P20272); assay: Antagonist activity at CB1 receptor in rat cerebellar membranes assessed as HU210-evoked response up to 10 uM incubated for 10 mins prior to testing by [35S]GTPgammaS binding assay; assay type: functional, cell membranes; details: Cerebellum, Membrane
[5] = biological target: T3, Fatty-acid amide hydrolase 1 (Homo sapiens); assay: Inhibition of human recombinant FAAH overexpressed in African green monkey COS7 cells using [3H]-anandamide as substrate at 10 to 300 uM preincubated for 10 to 60 mins by liquid scintillation counting analysis; assay type: cell-based; details: COS-7
[6] = biological target: T3, Fatty-acid amide hydrolase 1 (Homo sapiens); assay: Reversible inhibition of human recombinant FAAH overexpressed in African green monkey COS7 cells using […] as substrate assessed as recovery of enzyme activity at 20 x IC50 preincubated for 60 mins followed by 500 fold dilution measured after 10 mins by HPLC analysis; assay type: cell-based; details: COS-7
[7] = biological target: T4, Lysophosphatidylserine lipase ABHD12 (Homo sapiens) (UniProt Q8N2K0); assay: Inhibition of human ABHD12 overexpressed in HEK293 cells assessed as 2-AG hydrolysis at 1 uM by fluorescent glycerol assay; assay type: cell-based
T4 sequence (whole entry): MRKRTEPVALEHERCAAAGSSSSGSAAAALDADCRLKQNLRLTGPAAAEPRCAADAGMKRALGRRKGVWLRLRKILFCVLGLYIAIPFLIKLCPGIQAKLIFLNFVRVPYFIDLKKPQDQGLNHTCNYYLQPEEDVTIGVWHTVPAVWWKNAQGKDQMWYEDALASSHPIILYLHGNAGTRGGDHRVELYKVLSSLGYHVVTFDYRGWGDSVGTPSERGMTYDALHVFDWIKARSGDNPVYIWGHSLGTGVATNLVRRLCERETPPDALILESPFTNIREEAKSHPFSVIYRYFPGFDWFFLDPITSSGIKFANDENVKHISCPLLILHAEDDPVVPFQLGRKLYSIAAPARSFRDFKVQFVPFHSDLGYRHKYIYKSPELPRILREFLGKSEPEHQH

[8] = biological target: T5, Monoacylglycerol lipase ABHD6 (Homo sapiens) (UniProt Q9BV23); assay: Inhibition of human ABHD6 overexpressed in HEK293 cells assessed as 2-AG hydrolysis at 1 uM by fluorescent glycerol assay; assay type: cell-based
T5 sequence (whole entry): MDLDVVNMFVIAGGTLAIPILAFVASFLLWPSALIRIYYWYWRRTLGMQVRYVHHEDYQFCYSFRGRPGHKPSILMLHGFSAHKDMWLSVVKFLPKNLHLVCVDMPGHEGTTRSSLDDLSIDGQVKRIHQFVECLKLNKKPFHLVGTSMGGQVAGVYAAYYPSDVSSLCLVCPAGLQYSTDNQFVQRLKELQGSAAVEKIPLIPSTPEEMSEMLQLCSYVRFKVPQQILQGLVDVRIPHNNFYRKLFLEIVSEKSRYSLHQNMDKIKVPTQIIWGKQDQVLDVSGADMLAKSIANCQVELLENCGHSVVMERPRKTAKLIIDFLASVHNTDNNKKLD

[9] = biological target: T3, Fatty-acid amide hydrolase 1 (Homo sapiens); assay: Inhibition of human recombinant FAAH overexpressed in African green monkey COS7 cells using [3H]-anandamide as substrate at 10 to 100 uM preincubated for 10 to 60 mins by liquid scintillation counting analysis; assay type: cell-based; details: COS-7
[10] = biological target: Cannabinoid receptor 2 (Homo sapiens) (UniProt P34972); assay: Agonist activity at human CB2 receptor expressed in CHO cell membranes up to 10 uM incubated for 10 mins prior to testing by [35S]GTPgammaS binding assay; assay type: functional
[11] = biological target: T6, Fatty-acid amide hydrolase 1 (Homo sapiens, UniProt O00519); assay: Inhibition of human recombinant FAAH overexpressed in African green monkey COS7 cells using [3H]-anandamide as substrate preincubated for 10 mins before substrate addition measured after 10 mins by liquid scintillation counting analysis; assay type: cell-based, COS-7
T6 sequence (O00519 whole entry): T3 sequence (whole entry)

[12] = biological target: T3, Fatty-acid amide hydrolase 1 (Homo sapiens); assay: Noncompetitive inhibition of human recombinant FAAH overexpressed in African green monkey COS7 cells using anandamide as substrate assessed as decrease in Vmax of substrate hydrolysis preincubated for 10 mins before substrate addition measured after 10 mins by HPLC analysis; details: COS-7
[13] = biological target: Cannabinoid receptor 1 (Rattus norvegicus) (UniProt P20272); assay: Agonist activity at CB1 receptor in rat cerebellar membranes up to 10 uM incubated for 10 mins prior to testing by [35S]GTPgammaS binding assay; assay type: functional, cell membranes; details: Cerebellum, Membrane
[14] = biological target: T7, Monoglyceride lipase (Homo sapiens) (UniProt Q99685); assay: Inhibition of human recombinant MAGL overexpressed in HEK cells using 2-AG as substrate at 10 uM preincubated for 10 mins before substrate addition measured after 10 mins by HPLC analysis relative to control; assay type: cell-based; details: HEK293
T7 sequence (whole entry): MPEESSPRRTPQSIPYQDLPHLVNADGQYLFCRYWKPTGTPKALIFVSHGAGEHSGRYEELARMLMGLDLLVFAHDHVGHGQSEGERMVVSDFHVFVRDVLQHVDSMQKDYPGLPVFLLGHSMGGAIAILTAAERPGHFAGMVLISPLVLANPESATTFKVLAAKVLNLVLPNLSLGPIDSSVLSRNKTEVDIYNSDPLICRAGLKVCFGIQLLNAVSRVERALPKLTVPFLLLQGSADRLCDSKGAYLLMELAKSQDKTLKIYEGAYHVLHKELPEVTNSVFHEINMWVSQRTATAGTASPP

[15] = biological target: T8, Prostaglandin G/H synthase 2 (Homo sapiens) (UniProt P35354); assay: Inhibition of human recombinant COX-2 assessed as inhibition of arachidonic acid cyclooxygenation at 30 uM measured within 10 to 50 secs relative to control
T8 sequence (whole entry): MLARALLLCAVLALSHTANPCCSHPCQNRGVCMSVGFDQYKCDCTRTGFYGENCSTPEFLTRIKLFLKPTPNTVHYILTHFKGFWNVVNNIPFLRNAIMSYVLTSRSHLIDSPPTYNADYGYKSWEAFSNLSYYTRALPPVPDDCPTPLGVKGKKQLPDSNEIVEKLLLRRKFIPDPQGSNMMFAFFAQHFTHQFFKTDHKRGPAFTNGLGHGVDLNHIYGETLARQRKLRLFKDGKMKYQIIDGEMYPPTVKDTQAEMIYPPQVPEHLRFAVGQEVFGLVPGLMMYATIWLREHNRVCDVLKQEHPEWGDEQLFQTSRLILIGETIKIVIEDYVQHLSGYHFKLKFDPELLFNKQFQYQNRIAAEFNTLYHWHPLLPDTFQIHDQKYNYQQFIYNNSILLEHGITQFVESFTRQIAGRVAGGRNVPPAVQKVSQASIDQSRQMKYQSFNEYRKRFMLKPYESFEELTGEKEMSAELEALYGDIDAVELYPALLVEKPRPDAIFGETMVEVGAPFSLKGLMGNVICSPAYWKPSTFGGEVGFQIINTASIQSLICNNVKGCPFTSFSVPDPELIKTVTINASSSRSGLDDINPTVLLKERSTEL

[16] = biological target: T8, Prostaglandin G/H synthase 2 (Homo sapiens); assay: Inhibition of human recombinant COX-2 assessed as inhibition of 2-AG cyclooxygenation at 30 uM measured within 10 to 50 secs relative to control
[17] = biological target: T2, Prostaglandin G/H synthase 1 (Ovis aries); assay: Inhibition of ovine COX-1 using arachidonic acid as substrate assessed as oxygen consumption at 100 uM measured within 10 to 50 secs
[18] = biological target: T8, Prostaglandin G/H synthase 2 (Homo sapiens); assay: Inhibition of human recombinant COX-2 assessed as inhibition of arachidonic acid cyclooxygenation at 100 uM measured within 10 to 50 secs relative to control
[19] = biological target: T8, Prostaglandin G/H synthase 2 (Homo sapiens); assay: Inhibition of human recombinant COX-2 assessed as inhibition of 2-AG cyclooxygenation at 100 uM measured within 10 to 50 secs relative to control
[20] = biological target: T8, Prostaglandin G/H synthase 2 (Homo sapiens); assay: Inhibition of human recombinant COX-2 assessed as inhibition of 2-AG cyclooxygenation at 10 uM measured within 10 to 50 secs relative to control
Monoglyceride lipase = biological target: T9, Monoglyceride lipase (Homo sapiens, UniProt Q99685); assay: Inhibition of human recombinant MAGL overexpressed in HEK cells using 2-AG as substrate preincubated for 10 mins before substrate addition measured after 10 mins by HPLC analysis; assay type: cell-based, HEK293
T9 sequence (Q99685 whole entry): T7 sequence (whole entry)

[21] = biological target: T2, Prostaglandin G/H synthase 1 (Ovis aries); assay: Inhibition of ovine COX-1 using arachidonic acid as substrate assessed as oxygen consumption at 10 uM measured within 10 to 50 secs
[22] = biological target: T8, Prostaglandin G/H synthase 2 (Homo sapiens); assay: Inhibition of human recombinant COX-2 assessed as inhibition of arachidonic acid cyclooxygenation at 10 uM measured within 10 to 50 secs relative to control

Cannabinoid receptor 1 (Rattus norvegicus), sequence (P20272 whole entry): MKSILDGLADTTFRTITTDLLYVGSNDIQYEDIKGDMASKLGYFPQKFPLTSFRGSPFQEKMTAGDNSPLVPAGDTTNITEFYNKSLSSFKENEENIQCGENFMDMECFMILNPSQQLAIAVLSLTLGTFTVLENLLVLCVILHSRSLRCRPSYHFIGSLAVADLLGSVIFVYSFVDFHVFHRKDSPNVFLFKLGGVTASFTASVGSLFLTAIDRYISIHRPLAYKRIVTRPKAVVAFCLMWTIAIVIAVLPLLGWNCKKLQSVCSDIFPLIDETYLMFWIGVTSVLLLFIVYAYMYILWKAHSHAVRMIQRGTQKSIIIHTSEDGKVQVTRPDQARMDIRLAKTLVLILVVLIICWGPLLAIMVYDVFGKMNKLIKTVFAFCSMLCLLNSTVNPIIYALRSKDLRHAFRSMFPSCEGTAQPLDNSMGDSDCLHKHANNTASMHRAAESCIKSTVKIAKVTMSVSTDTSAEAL
Cannabinoid receptor 2 (Homo sapiens), sequence (P34972 whole entry): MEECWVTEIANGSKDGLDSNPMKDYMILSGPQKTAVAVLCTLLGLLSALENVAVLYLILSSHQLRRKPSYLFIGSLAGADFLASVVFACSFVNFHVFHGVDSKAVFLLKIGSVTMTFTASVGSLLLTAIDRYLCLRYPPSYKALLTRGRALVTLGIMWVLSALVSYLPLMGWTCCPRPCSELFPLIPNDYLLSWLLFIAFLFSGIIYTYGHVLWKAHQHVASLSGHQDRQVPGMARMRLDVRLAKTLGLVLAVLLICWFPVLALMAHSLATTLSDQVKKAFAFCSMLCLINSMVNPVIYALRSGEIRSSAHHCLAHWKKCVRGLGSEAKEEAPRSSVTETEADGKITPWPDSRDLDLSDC

O=C(N1CCC(C(c2ccc3c(c2)OCO3)c2ccc3c(c2)OCO3)CC1)n1cncn1
inhibition [1]: Active

CC(C(=O)O)c1ccc(-c2ccccc2)c(F)c1 (stereo not given)
inhibition [2]: Active

COc1nn([C@@H](C)c2ccc(-c3ccccc3)cc2)c(=O)o1
inhibition [3]: Active
Activity [4]: inactive
inhibition [5]: Active
inhibition [6]: Active
inhibition [7]: inactive
inhibition [8]: inactive
inhibition [9]: Active
Activity [10]: inactive
IC50 ([11]; read-out: IC50): 23 nM
IC50 ([11]; read-out: pIC50 (converted)): 23.4 nM
inhibition [12]: Dose-dependent effect
Activity [13]: inactive
inhibition [14]: 18%

COc1nn([C@H](C)c2ccc(CC(C)C)cc2)c(=O)o1
inhibition [15]: 40%
inhibition [16]: 10%
inhibition [17]: 20%
inhibition [2]: 10%
inhibition [18]: 50%
inhibition [19]: 30%
inhibition [7]: inactive
inhibition [8]: inactive
inhibition [20]: 20%
IC50 (Monoglyceride lipase; read-out: IC50): 4000 nM
IC50 (Monoglyceride lipase; read-out: pIC50 (converted)): 13500 nM
inhibition [21]: inactive
IC50 ([11]; read-out: IC50): 240 nM
IC50 ([11]; read-out: pIC50 (converted)): 245 nM
inhibition [22]: 30%
